System: Human hepatic carcinoma SMMC-7721 cell line
Assay: Inhibitory effect on growth of human hepatoma SMMC-7721 xenografts in nude mice (tumor weight / tumor volume)
Format: in vivo, BALB/c nude mouse
Conditions: SMMC-7721 xenograft in BALB/c nude mice, n = 6 per group, i.v. for 21 days, tumors weighed the next day; (W − Wt)/W versus normal saline control; Taxol 10 mg/kg twice a week; HM-3 3 mg/(kg·d) twice a day; ALD-mPEG5k-HM-3 11.4 mg/(kg·d) once a day; ALD-mPEG10k-HM-3 and SC-mPEG10k-HM-3 19.9 mg/(kg·2d) every two days; SC-mPEG20k-HM-3 36.7 mg/(kg·2d) every two days (dose as total PEG conjugate)
Description: Human hepatic carcinoma SMMC-7721 cell line was purchased from American type Cell Culture (ATCC, Shanghai, China) and maintained in Dulbecco’s modified Eagle’s medium (DMEM) with 10% fetal bovine serum and antibiotics. BALB/c nude female mouse (SPF grade, 4–5 w, 20.9 ± 0.492 g) were purchased from the Shanghai Laboratory Animal Center of the Chinese Academy of Sciences.
SMMC-7721 cells were cultured in DMEM medium under 5% CO2/saturated humidified air at 37 °C. Cells were digested with the mixture of the trypsin (0.25%) and EDTA (0.02%) at logarithmic growth phase and passaged every 3–4 day. […]
All the mice (20 g) were administrated intravenously for 21 days and the tumor volumes were measured every two days. […] Antitumor ratio determined by the tumor volumes is (V − Vt)/V (V is the average tumor volume of the control group, and Vt is the average tumor volume of the treated group). The antitumor ratio by the tumor weights was also calculated as (W − Wt)/W (W is the average tumor weight of the control group, and Wt is the average tumor weight of the treatment group).
The data was analyzed using the statistics software SPSS13.0, which are expressed as mean ± SD. Statistical significance was assessed using the Student t test. […]

Compound: CC(=O)O[C@H]1C(=O)[C@@]2(C)[C@H]([C@H](OC(=O)c3ccccc3)[C@]3(O)C[C@H](OC(=O)[C@H](O)[C@@H](NC(=O)c4ccccc4)c4ccccc4)C(C)=C1C3(C)C)[C@]1(OC(C)=O)CO[C@@H]1C[C@@H]2O [Taxol, paclitaxel]
- Tumor weight inhibition rate (inhibition rate of average tumor weight): 44.50%

Source: PMC3127140, “In Vivo Anti-Tumor Activity of Polypeptide HM-3 Modified by Different Polyethylene Glycols (PEG)” (International Journal of Molecular Sciences, 2011)
